From patent US8912144B2, “Method for treating stroke via administration of NEP1-40 and inosine” (Children's Medical Center Corporation, priority 2003, dated 2014)

System: corticospinal neurons (CSNs/CSMNs)
Assay: Laser-capture microdissection and Illumina microarray gene expression in corticospinal neurons contralateral to stroke
Assay type: in vivo, rat
Procedure: In a separate group of animals (n=20), layer V pyramidal cells of the sensorimotor cortex were retrogradely labeled by injecting Alexa-Fluor-488-conjugated cholera toxin B subunit (CTB; 300 U/μl in sterile saline) into the cervical spinal cord. For this, animals were anesthetized with a combination of ketamine and Domitor (medetomidine) and a laminectomy was performed at the cervical level of the spinal cord (C2-C4). CTB was stereotaxically delivered into four sites lateral to the corticospinal tract. Injections (1.3 μl) were spaced 1 mm apart on the rostro-caudal axis, and were made 0.5 mm to the left and right of the midline. After allowing two weeks for transport of the tracer, we performed either sham surgery with no treatment (n=6) or stroke surgery combined with saline (n=3) or inosine (n=4) treatment as described above. Seven days later, animals were decapitated under transient gas anesthesia, brains were removed and rinsed in cold RPMI medium, and a tissue block containing the sensorimotor cortex was dissected and placed in OCT Tissue Tek Medium (Sakura Finetek USA Inc., CA) on dry ice within five minutes of death. Ten μm sections were cut onto precleaned Gold Seal RITE-ON glass slides (Gold Seal Prod-ucts, Portsmouth, N.H.), placed on dry ice, and rapidly stored at −80° C.
Slide-mounted sections were thawed and dehydrated in RNAse-free ethanol gradients and xylene. Retro-gradely labeled, fluorescent cortical pyramidal cells in the undamaged hemisphere were individually captured using the Arcturus VERITAS system. ≧500 cells were collected from each animal and stored in Arcturus extraction buffer at −80° C. Total RNA was extracted from cells using the Micro-to-Midi TotalRNA Purification System (Invitrogen, Carlsbad Calif.) and double-amplified using the TargetAmp 2-Round Aminoallyl-aRNA Amplification kit 1.0 (Epicentre, Madison, Wis.). Amplified RNA was checked for average fragment length using the Agilent RNA 6000 Nano LabChip kit (Agilent Technologies, Santa Clara, Calif.) and then biotinylated and hybridized (1 μg) on Illumina RatRef-12 Expression BeadChip arrays (Illumina, San Diego Calif.), querying the expression of >22,000 RefSeq-curated rat transcripts. Results were obtained from a total of 15 samples representing 6 untreated controls, 4 animals with stroke treated with saline and 5 animals with stroke treated with inosine. Slides were processed and scanned with Illumina BeadStation platform according to the manufacturer protocol.
Raw data was analyzed using Bioconductor packages (www.bioconductor.org, (Gentleman et al., 2004)). Low level quality-control analysis was performed using inter-array Pearson correlation and clustering based on variance. Two arrays (1 saline and 1 inosine-treated) were outliers and were excluded from the analysis. Data was normalized using quantile normalization, and analysis of differential expression was performed using a linear model fitting (LIMMA package, (Smyth, 2005). Differentially expressed genes were classified according to gene ontology using Bioconductor packages and online tools (DAVID, http://david.abcc.ncifcrf.gov/). Pathway analysis was carried out using Ingenuity Pathway Analysis (Ingenuity Systems, www.ingenuity.com).

OC[C@H]1O[C@@H](n2cnc3c(O)ncnc32)[C@H](O)[C@@H]1O [inosine]
Signal Intensity, MGC94053 (ILMN_53763, inosine after stroke): 469 | Fold-Induction Stroke, ino vs. cntrl, Cnot7 (ILMN_53955): 0.60 | Signal Intensity, Cnot7 (ILMN_53955, inosine after stroke): 427 | Fold-Induction Stroke, ino vs. cntrl, Rnf11 (ILMN_54109): 0.49 | Signal Intensity, Rnf11 (ILMN_54109, inosine after stroke): 825 | Fold-Induction Stroke, ino vs. cntrl, Scara3 (ILMN_54123): 0.78 | Signal Intensity, Scara3 (ILMN_54123, inosine after stroke): 470 | Fold-Induction Stroke, ino vs. cntrl, Gabarapl2 (ILMN_54140): 0.75 | Signal Intensity, Gabarapl2 (ILMN_54140, inosine after stroke): 1324 | Fold-induction CSMNs: Vim (ILMN_54242, over and above inosine's effect of decreasing stroke-induced changes): 1.96 fold | Fold-Induction Stroke, ino vs. cntrl, LOC501145 (ILMN_54288): 0.70 | Signal Intensity, LOC501145 (ILMN_54288, inosine after stroke): 626 | Fold-Induction Stroke, ino vs. cntrl, Echdc1 (ILMN_54458): 0.67 | Signal Intensity, Echdc1 (ILMN_54458, inosine after stroke): 531 | Fold-Induction Stroke, ino vs. cntrl, LOC498407 (ILMN_54747): 0.64 | Signal Intensity, LOC498407 (ILMN_54747, inosine after stroke): 1261 | Fold-Induction Stroke, ino vs. cntrl, Fuca2 (ILMN_55057): 0.56 | Signal Intensity, Fuca2 (ILMN_55057, inosine after stroke): 662 | Fold-Induction Stroke, ino vs. cntrl, Grm3 (ILMN_55270): 0.50 | Signal Intensity, Grm3 (ILMN_55270, inosine after stroke): 387 | Fold-induction CSMNs: Rnaset2 (ILMN_55431, over and above inosine's effect of decreasing stroke-induced changes): 1.88 fold | Fold-Induction, complement cascade gene C1qg (ILMN_55502, LCM-captured CSMNs contralateral a stroke): 3.96 fold | Fold-induction CSMNs: C1qg (ILMN_55502, over and above inosine's effect of decreasing stroke-induced changes): 2.73 fold | Fold-Induction Stroke, ino vs. cntrl, Map2k4 (ILMN_55667): 0.65 | Signal Intensity, Map2k4 (ILMN_55667, inosine after stroke): 9089 | Fold-Induction Stroke, ino vs. cntrl, LOC498618 (ILMN_55685): 0.49 | Signal Intensity, LOC498618 (ILMN_55685, inosine after stroke): 3089 | Fold-Induction, complement cascade gene C1s (ILMN_55706, LCM-captured CSMNs contralateral a stroke): 2.07 fold | Fold-induction CSMNs: C1s (ILMN_55706, over and above inosine's effect of decreasing stroke-induced changes): 2.03 fold | Fold-induction CSMNs: Bzrp (ILMN_55731, over and above inosine's effect of decreasing stroke-induced changes): 2.38 fold | Fold-Induction Stroke, ino vs. cntrl, Klhl2 (ILMN_55879): 0.78 | Signal Intensity, Klhl2 (ILMN_55879, inosine after stroke): 516 | Fold-Induction Stroke, ino vs. cntrl, Tceal1 (ILMN_55905): 0.57 | Signal Intensity, Tceal1 (ILMN_55905, inosine after stroke): 286 | Fold-Induction Stroke, ino vs. cntrl, LOC502317 (ILMN_55909): 0.40 | Signal Intensity, LOC502317 (ILMN_55909, inosine after stroke): 689 | Fold-Induction Stroke, ino vs. cntrl, Nr2f1 (ILMN_55914): 0.52 | Signal Intensity, Nr2f1 (ILMN_55914, inosine after stroke): 526 | Fold-Induction Stroke, ino vs. cntrl, Slc16a1 (ILMN_55995): 0.56 | Signal Intensity, Slc16a1 (ILMN_55995, inosine after stroke): 827 | Fold-Induction Stroke, ino vs. cntrl, Tpt1 (ILMN_56078): 0.89 | Signal Intensity, Tpt1 (ILMN_56078, inosine after stroke): 11229 | Fold-Induction Stroke, ino vs. cntrl, Acsl3 (ILMN_56170): 0.50 | Signal Intensity, Acsl3 (ILMN_56170, inosine after stroke): 389 | Fold-Induction Stroke, ino vs. cntrl, Scn1a (ILMN_56183): 0.88 | Signal Intensity, Scn1a (ILMN_56183, inosine after stroke): 517 | Fold-Induction Stroke, ino vs. cntrl, Cetn3 (ILMN_56556): 0.63 | Signal Intensity, Cetn3 (ILMN_56556, inosine after stroke): 649 | Fold-Induction Stroke, ino vs. cntrl, Zfp68 (ILMN_56593): 0.59 | Signal Intensity, Zfp68 (ILMN_56593, inosine after stroke): 727 | Fold-Induction Stroke, ino vs. cntrl, Pnrc1 (ILMN_56710): 0.65 | Signal Intensity, Pnrc1 (ILMN_56710, inosine after stroke): 626 | Fold-Induction Stroke, ino vs. cntrl, RGD1308082 (ILMN_56896): 0.62 | Signal Intensity, RGD1308082 (ILMN_56896, inosine after stroke): 428 | Fold-Induction Stroke, ino vs. cntrl, Scg3 (ILMN_56986): 0.69 | Signal Intensity, Scg3 (ILMN_56986, inosine after stroke): 870 | Fold-Induction Stroke, ino vs. cntrl, Plp (ILMN_57073): 0.51 | Signal Intensity, Plp (ILMN_57073, inosine after stroke): 1222 | Fold-induction CSMNs: Serpinb1a (ILMN_57422, over and above inosine's effect of decreasing stroke-induced changes): 2.41 fold | Fold-Induction Stroke, ino vs. cntrl, Lisch7 (ILMN_57520): 0.69 | Signal Intensity, Lisch7 (ILMN_57520, inosine after stroke): 484 | Fold-Induction Stroke, ino vs. cntrl, Olfm3 (ILMN_57553): 0.62 | Signal Intensity, Olfm3 (ILMN_57553, inosine after stroke): 473 | Fold-Induction Stroke, ino vs. cntrl, Vmp1 (ILMN_57554): 0.57 | Signal Intensity, Vmp1 (ILMN_57554, inosine after stroke): 1305 | Fold-Induction Stroke, ino vs. cntrl, Sc4mol (ILMN_57630): 0.52 | Signal Intensity, Sc4mol (ILMN_57630, inosine after stroke): 271 | Fold-Induction Stroke, ino vs. cntrl, RGD1308373 (ILMN_57697): 0.66 | Signal Intensity, RGD1308373 (ILMN_57697, inosine after stroke): 2921 | Fold-Induction Stroke, ino vs. cntrl, Gucy1b3 (ILMN_57719): 0.57 | Signal Intensity, Gucy1b3 (ILMN_57719, inosine after stroke): 3956 | Fold-Induction Stroke, ino vs. cntrl, Tnnc2 (ILMN_57928): 0.48 | Signal Intensity, Tnnc2 (ILMN_57928, inosine after stroke): 650
